Measured values published in paper PMC12274840 (The Journal of Biological Chemistry, 2025).
In brackets after ≈: the same amount, converted by molar mass. Like-named read-outs stand apart in the source and are kept apart here.

How the values were obtained:
[1] = tested on: E. coli KA797 cells carrying pUK21 with CTX-M-14 WT (Tat); experiment: microbe, parasite or virus in culture; format: cell-based; conditions: Escherichia coli, antibiotic alone
[2] = tested on: E. coli KA797 cells carrying BlaC position 105 library; format: cell-based, Escherichia coli; conditions: for Fi AVG (average fitness): relative to WT Ile; for Fi AVG (average fitness) / Fi MEM AVG: average of replicates; for Fi MEM AVG / Fi MEM 1 / Fi MEM 2 / Fi MEM 3 / Significance (Fi MEM AVG): meropenem; for Fi MEM 1: replicate 1; for Fi MEM 2: replicate 2; for Fi MEM 3: replicate 3

For `C[C@@H](O)[C@H]1C(=O)N2C(C(=O)O)=C(S[C@@H]3CN[C@H](C(=O)N(C)C)C3)[C@H](C)[C@H]12` [meropenem], the MIC [1] was 0.1 µg/mL (≈ 0.261 µM), the “Fi AVG (average fitness)” value ([2]; AA 105 Ala (BlaC I105A)) was -0.028 and the “Fi MEM AVG” value ([2]; AA 105 Ala) was -0.183. The “Fi MEM 1” value ([2]; AA 105 Ala) was -0.183, the “Fi MEM AVG” value ([2]; AA 105 Arg) was -0.097 and the “Fi MEM 1” value ([2]; AA 105 Arg) was 0.189. The “Fi MEM 2” value ([2]; AA 105 Arg) was 0.262, the “Fi MEM 3” value ([2]; AA 105 Arg) was -0.743 and the “Fi AVG (average fitness)” value ([2]; AA 105 Asn (BlaC I105N)) was -0.021. The “Fi MEM AVG” value ([2]; AA 105 Asn) was -0.526, the “Fi MEM 1” value ([2]; AA 105 Asn) was 0.793 and the “Fi MEM 2” value ([2]; AA 105 Asn) was -1.824. The “Fi MEM 3” value ([2]; AA 105 Asn) was -0.547, the “Fi AVG (average fitness)” value ([2]; AA 105 Asp (BlaC I105D)) was -0.059 and the “Significance (Fi MEM AVG)” value ([2]; AA 105 Asp) was “-”. The “Fi MEM AVG” value ([2]; AA 105 Asp) was -1.181, the “Fi MEM 1” value ([2]; AA 105 Asp) was -1.339 and the “Fi MEM 2” value ([2]; AA 105 Asp) was -1.644. For the same compound, the “Fi MEM 3” value ([2]; AA 105 Asp) was -0.561, the “Fi MEM AVG” value ([2]; AA 105 Cys) was -0.623 and the “Fi MEM 1” value ([2]; AA 105 Cys) was -1.368. The “Fi MEM 2” value ([2]; AA 105 Cys) was 1.109, the “Fi MEM 3” value ([2]; AA 105 Cys) was -1.611 and the “Fi AVG (average fitness)” value ([2]; AA 105 Gln (BlaC I105Q)) was -0.020. For the same compound, the “Fi MEM AVG” value ([2]; AA 105 Gln) was -1.909, the “Fi MEM 2” value ([2]; AA 105 Gln) was -1.909 and the “Fi AVG (average fitness)” value ([2]; AA 105 Glu (BlaC I105E)) was -0.058. For the same compound, the “Significance (Fi MEM AVG)” value ([2]; AA 105 Glu) was “-”, the “Fi MEM AVG” value ([2]; AA 105 Glu) was -1.296 and the “Fi MEM 1” value ([2]; AA 105 Glu) was -1.915. The “Fi MEM 2” value ([2]; AA 105 Glu) was 0.069, the “Fi MEM 3” value ([2]; AA 105 Glu) was -2.043 and the “Fi AVG (average fitness)” value ([2]; AA 105 Gly (BlaC I105G)) was -0.019. The “Significance (Fi MEM AVG)” value ([2]; AA 105 Gly) was “-”, the “Fi MEM AVG” value ([2]; AA 105 Gly) was -1.447 and the “Fi MEM 1” value ([2]; AA 105 Gly) was -0.905. For the same compound, the “Fi MEM 2” value ([2]; AA 105 Gly) was -2.832, the “Fi MEM 3” value ([2]; AA 105 Gly) was -0.603 and the “Fi MEM AVG” value ([2]; AA 105 His) was 0.129. For the same compound, the “Fi MEM 1” value ([2]; AA 105 His) was 1.220, the “Fi MEM 2” value ([2]; AA 105 His) was -0.828 and the “Fi MEM 3” value ([2]; AA 105 His) was -0.00649. For the same compound, the “Fi MEM AVG” value ([2]; AA 105 Ile (WT)) was 0.000, the “Fi MEM 1” value ([2]; AA 105 Ile (WT)) was 0.000 and the “Fi MEM 2” value ([2]; AA 105 Ile (WT)) was 0.000. The “Fi MEM 3” value ([2]; AA 105 Ile (WT)) was 0.000, the “Significance (Fi MEM AVG)” value ([2]; AA 105 Leu) was “-” and the “Fi MEM AVG” value ([2]; AA 105 Leu) was -1.047. The “Fi MEM 1” value ([2]; AA 105 Leu) was -0.470, the “Fi MEM 2” value ([2]; AA 105 Leu) was -1.669 and the “Fi MEM 3” value ([2]; AA 105 Leu) was -1.001. For the same compound, the “Significance (Fi MEM AVG)” value ([2]; AA 105 Lys) was “-”, the “Fi MEM AVG” value ([2]; AA 105 Lys) was -2.317 and the “Fi MEM 1” value ([2]; AA 105 Lys) was -1.936. The “Fi MEM 2” value ([2]; AA 105 Lys) was -2.755, the “Fi MEM 3” value ([2]; AA 105 Lys) was -2.261 and the “Fi MEM AVG” value ([2]; AA 105 Met) was -0.579. The “Fi MEM 1” value ([2]; AA 105 Met) was -0.023, the “Fi MEM 2” value ([2]; AA 105 Met) was -0.087 and the “Fi MEM 3” value ([2]; AA 105 Met) was -1.628. For the same compound, the “Significance (Fi MEM AVG)” value ([2]; AA 105 Phe) was “-”, the “Fi MEM AVG” value ([2]; AA 105 Phe) was -1.123 and the “Fi MEM 1” value ([2]; AA 105 Phe) was -0.896. The “Fi MEM 2” value ([2]; AA 105 Phe) was -1.005, the “Fi MEM 3” value ([2]; AA 105 Phe) was -1.468 and the “Fi AVG (average fitness)” value ([2]; AA 105 Pro (BlaC I105P)) was -0.044. The “Significance (Fi MEM AVG)” value ([2]; AA 105 Pro) was “-”, the “Fi MEM AVG” value ([2]; AA 105 Pro) was -1.653 and the “Fi MEM 1” value ([2]; AA 105 Pro) was -2.435. For the same compound, the “Fi MEM 2” value ([2]; AA 105 Pro) was 0.050, the “Fi MEM 3” value ([2]; AA 105 Pro) was -2.575 and the “Significance (Fi MEM AVG)” value ([2]; AA 105 Ser) was “-”. For the same compound, the “Fi MEM AVG” value ([2]; AA 105 Ser) was -1.018, the “Fi MEM 1” value ([2]; AA 105 Ser) was -0.084 and the “Fi MEM 2” value ([2]; AA 105 Ser) was -1.824. For the same compound, the “Fi MEM 3” value ([2]; AA 105 Ser) was -1.144.
